Broadly, the ED50 is the midpoint of the dose-response relation.

The values below come from ChEMBL document CHEMBL1152201, “Synthesis of 3,6-bicyclolides: a novel class of macrolide antibiotics” (2008).

Common to all, as to assay type: functional
The test system of test [1] is Streptococcus pneumoniae. Put plainly: Antibacterial activity against erythromycin-resistant Streptococcus pneumoniae 700906 expressing […] gene by broth-microdilution method. For orientation: Broth dilution looks for growth in wells or tubes with falling amounts of substance.
Test [2] concerns Streptococcus pneumoniae. Put plainly: Antibacterial activity against erythromycin-susceptible Streptococcus pneumoniae 49619 by broth-microdilution method.
Test [3] deals with Streptococcus pyogenes. Put plainly: Antibacterial activity against erythromycin-susceptible Streptococcus pyogenes 19615 by broth-microdilution method.
Test [4] deals with Streptococcus pyogenes. Put plainly: Antibacterial activity against erythromycin-resistant Streptococcus pyogenes 1323 expressing mef gene by broth-microdilution method.
For a further test, the system named is Moraxella catarrhalis. Put plainly: Antibacterial activity against Moraxella catarrhalis by broth-microdilution method.
For test [5], the system named is Staphylococcus aureus. Put plainly: Antibacterial activity against methicillin-resistant Staphylococcus aureus 33591 by broth-microdilution method.
For test [6], the system named is Streptococcus pneumoniae. Put plainly: Antibacterial activity against erythromycin-resistant Streptococcus pneumoniae 7701 expressing mef gene by broth-microdilution method.
Test [7] relates to Streptococcus pyogenes. Put plainly: Antibacterial activity against erythromycin-resistant Streptococcus pyogenes 2912 expressing erm gene by broth-microdilution method.
In test [8] the test system is Haemophilus influenzae. Put plainly: Antibacterial activity against ampicillin-susceptible Haemophilus influenzae by broth-microdilution method.
Test [9] relates to Staphylococcus aureus. Put plainly: Antibacterial activity against erythromycin-susceptible Staphylococcus aureus 29213 by broth-microdilution method. The settings on record: ATCC29213.
Test [10] deals with Staphylococcus aureus. Put plainly: Antibacterial activity against MLSB-resistant Staphylococcus aureus 27660 by broth-microdilution method.
Test [11] has as its system Haemophilus influenzae. Put plainly: Antibacterial activity against ampicillin-resistant Haemophilus influenzae 33929 by broth-microdilution method.
Test [12] has as its system Staphylococcus aureus. Put plainly: Antibacterial activity against macrolide-resistant Staphylococcus aureus 7701 infected in mouse.
The subject of test [13] is Staphylococcus aureus. Put plainly: Antibacterial activity against macrolide-susceptible Staphylococcus aureus Smith infected in mouse.
Test [14] has as its system Staphylococcus aureus. Put plainly: Antibacterial activity against macrolide-susceptible Staphylococcus aureus Smith by broth-microdilution method.

Values after ≈ are worked out from the molar mass of the structure shown.

Turning to `C=C1CO[C@H]2[C@H](C)[C@@H](O[C@@H]3O[C@H](C)C[C@H](N(C)C)[C@H]3O)[C@](C)(C[C@@H](C)[C@H](N)[C@H](C)[C@@H](O)[C@](C)(O)[C@@H](CC)OC(=O)[C@@H]2C)OC1`, the MIC against Streptococcus pneumoniae [1] is > 64 µg/mL; against Streptococcus pneumoniae [2], ≤ 0.06 µg/mL; in the test with Streptococcus pyogenes [3] it was ≤ 0.06 µg/mL; in the test on Streptococcus pyogenes [4], 0.25 µg/mL (≈ 0.398 µM); in the test with Moraxella catarrhalis it was 0.5 µg/mL (≈ 0.795 µM); with Staphylococcus aureus [5] it was > 64 µg/mL. The MIC in the test with Streptococcus pneumoniae [6] was 0.125 µg/mL (≈ 0.199 µM); in the test on Streptococcus pyogenes [7], 64 µg/mL (≈ 102 µM); in the test on Haemophilus influenzae [8] it was 32 µg/mL (≈ 50.9 µM); against Staphylococcus aureus [9] it was 4 µg/mL (≈ 6.36 µM); against Staphylococcus aureus [10], 4 µg/mL (≈ 6.36 µM); with Haemophilus influenzae [11], 32 µg/mL (≈ 50.9 µM).
As for `C=C1CO[C@H]2[C@H](C)[C@@H](O[C@@H]3O[C@H](C)C[C@H](N(C)C)[C@H]3O)[C@](C)(C[C@@H](C)C(=N)[C@H](C)[C@@H](O)[C@](C)(O)[C@@H](CC)OC(=O)[C@@H]2C)OC1`, the MIC against Streptococcus pneumoniae [1] was > 64 µg/mL; against Streptococcus pneumoniae [2], 0.125 µg/mL (≈ 0.199 µM); in the test with Streptococcus pyogenes [3], 0.125 µg/mL (≈ 0.199 µM); in the test on Streptococcus pyogenes [4] it was 0.5 µg/mL (≈ 0.798 µM); in the test on Moraxella catarrhalis it was 0.5 µg/mL (≈ 0.798 µM); with Staphylococcus aureus [5], > 64 µg/mL. Also, the MIC is 0.25 µg/mL (≈ 0.399 µM) against Streptococcus pneumoniae [6]; 64 µg/mL (≈ 102 µM) against Streptococcus pyogenes [7]; 16 µg/mL (≈ 25.5 µM) against Haemophilus influenzae [8]; 2 µg/mL (≈ 3.19 µM) against Staphylococcus aureus [9]; 2 µg/mL (≈ 3.19 µM) against Staphylococcus aureus [10]; 64 µg/mL (≈ 102 µM) against Haemophilus influenzae [11].
`C=C1CO[C@H]2[C@H](C)[C@@H](O[C@@H]3O[C@H](C)C[C@H](N(C)C)[C@H]3O)[C@](C)(C[C@@H](C)C(=O)[C@H](C)[C@@H](O)[C@](C)(O)[C@@H](CC)OC(=O)[C@@H]2C)OC1`: the MIC against Streptococcus pneumoniae [1] was > 64 µg/mL; in the test on Streptococcus pneumoniae [2] it was 0.125 µg/mL (≈ 0.199 µM); against Streptococcus pyogenes [3], 0.25 µg/mL (≈ 0.398 µM); in the test with Streptococcus pyogenes [4], 0.5 µg/mL (≈ 0.796 µM); with Moraxella catarrhalis, 0.5 µg/mL (≈ 0.796 µM); against Staphylococcus aureus [5] it was > 64 µg/mL. For the same compound, the MIC is 0.25 µg/mL (≈ 0.398 µM) in the test on Streptococcus pneumoniae [6]; > 64 µg/mL in the test with Streptococcus pyogenes [7]; 64 µg/mL (≈ 102 µM) against Haemophilus influenzae [8]; 1 µg/mL (≈ 1.59 µM) in the test on Staphylococcus aureus [9]; 1 µg/mL (≈ 1.59 µM) against Staphylococcus aureus [10]; 64 µg/mL (≈ 102 µM) against Haemophilus influenzae [11].
`C=C1CO[C@H]2[C@H](C)[C@@H](O[C@@H]3O[C@H](C)C[C@H](N(C)C)[C@H]3O)[C@](C)(C[C@@H](C)C(=O)[C@H](C)[C@@H]3NC(=O)O[C@]3(C)[C@@H](CC)OC(=O)[C@@H]2C)OC1`: the MIC in the test with Streptococcus pneumoniae [1] was > 64 µg/mL; with Streptococcus pneumoniae [2] it was ≤ 0.06 µg/mL; in the test with Streptococcus pyogenes [3] it was ≤ 0.06 µg/mL; against Streptococcus pyogenes [4], 0.125 µg/mL (≈ 0.191 µM); in the test with Moraxella catarrhalis, ≤ 0.06 µg/mL; against Staphylococcus aureus [5] it was > 64 µg/mL. Also, the MIC in the test with Streptococcus pyogenes [7] was > 64 µg/mL; with Haemophilus influenzae [8], 2 µg/mL (≈ 3.06 µM); with Staphylococcus aureus [9], 0.125 µg/mL (≈ 0.191 µM); in the test with Staphylococcus aureus [14] it was 0.125 µg/mL (≈ 0.191 µM); in the test on Staphylococcus aureus [10] it was 0.125 µg/mL (≈ 0.191 µM); against Haemophilus influenzae [11], 4 µg/mL (≈ 6.13 µM). The ED50 was 7 mg/kg with Staphylococcus aureus [12] and 10 mg/kg with Staphylococcus aureus [13].
As for `C=C1CO[C@H]2[C@H](C)[C@@H](O[C@@H]3O[C@H](C)C[C@H](N(C)C)[C@H]3O)[C@](C)(C[C@@H](C)/C(=N\O)[C@H](C)[C@@H](O)[C@](C)(O)[C@@H](CC)OC(=O)[C@@H]2C)OC1`, the MIC against Streptococcus pneumoniae [1] was > 64 µg/mL; with Streptococcus pneumoniae [2], ≤ 0.06 µg/mL; in the test with Streptococcus pyogenes [3], 0.125 µg/mL (≈ 0.194 µM); in the test with Streptococcus pyogenes [4], 0.25 µg/mL (≈ 0.389 µM); in the test on Moraxella catarrhalis, 0.25 µg/mL (≈ 0.389 µM); in the test on Staphylococcus aureus [5] it was > 64 µg/mL. For the same compound, the MIC with Streptococcus pneumoniae [6] was 0.25 µg/mL (≈ 0.389 µM); with Streptococcus pyogenes [7], > 64 µg/mL; against Haemophilus influenzae [8] it was 32 µg/mL (≈ 49.8 µM); in the test with Staphylococcus aureus [9], 1 µg/mL (≈ 1.56 µM); in the test with Staphylococcus aureus [10], 1 µg/mL (≈ 1.56 µM); against Haemophilus influenzae [11], 32 µg/mL (≈ 49.8 µM).
As to `CC[C@H]1OC(=O)[C@H](C)[C@@H](O[C@H]2C[C@@](C)(OC)[C@@H](O)[C@H](C)O2)[C@H](C)[C@@H](O[C@@H]2O[C@H](C)C[C@H](N(C)C)[C@H]2O)[C@](C)(O)C[C@@H](C)C(=O)[C@H](C)[C@@H](O)[C@]1(C)O` [ERYTHROMYCIN], the MIC with Streptococcus pneumoniae [1] was > 64 µg/mL; with Streptococcus pneumoniae [2] it was ≤ 0.06 µg/mL; with Streptococcus pyogenes [3] it was 0.015 µg/mL (≈ 0.0204 µM); against Streptococcus pyogenes [4], 16 µg/mL (≈ 21.8 µM); against Moraxella catarrhalis, 0.13 µg/mL (≈ 0.177 µM); with Staphylococcus aureus [5], > 64 µg/mL. In addition, the MIC in the test on Streptococcus pneumoniae [6] was 4 µg/mL (≈ 5.45 µM); with Streptococcus pyogenes [7], > 64 µg/mL; against Haemophilus influenzae [8] it was 4 µg/mL (≈ 5.45 µM); in the test with Staphylococcus aureus [9], 0.5 µg/mL (≈ 0.681 µM); in the test with Staphylococcus aureus [10], > 64 µg/mL; in the test on Haemophilus influenzae [11], 4 µg/mL (≈ 5.45 µM).
As for `CC[C@H]1OC(=O)[C@H](C)C(=O)[C@H](C)[C@@H](O[C@@H]2O[C@H](C)C[C@H](N(C)C)[C@H]2O)[C@](C)(OC)C[C@@H](C)C(=O)[C@H](C)[C@H]2N(CCCCn3cnc(-c4cccnc4)c3)C(=O)O[C@]12C` [TELITHROMYCIN], the ED50 with Staphylococcus aureus [12] and in the test with Staphylococcus aureus [13] was 17.2 mg/kg throughout. Besides, in the test with Staphylococcus aureus [14], the MIC is 0.125 µg/mL (≈ 0.154 µM).
